Laboratory results reported in patent publication US11007269B2, “P53 degradation inducing molecule and pharmaceutical composition” (Tokyo University of Science Foundation, priority 2016, dated 2021).

Molecular target: endogenous wild-type p53 protein (Homo sapiens, UniProt P04637)
Experiment: Western blot of endogenous wild-type p53 protein degradation in HeLa cells, with rescue by proteasome inhibitor
Assay type: cell-based
Parameters: endogenous in cells
Method: In Example 3, degradation (knockdown) of an endogenous wild-type p53 protein in HeLa cells (human cervical cancer cells) to which TIBC-CANDDY_MLN has been added was evaluated by Western blot analysis. At the same time, a rescue of degradation of the p53 protein by a proteasome inhibitor (MLN2238) was evaluated.
HeLa cells were seeded in a 24-well plate at a cell density of 4×10^4 cells/well, and then cultured under conditions of 37° C. and 5 vol % CO2 for 16 hours.
After 16 hours from cell seeding, TIBC-CANDDY_MLN was added to HeLa cells as follows. As a medium, a serum-free medium (37° C.) in which 1 mass % L-glutamine solution (Sigma-Aldrich) was added to D-MEM (high D-glucose, phenol red, sodium pyruvate (Wako Pure Chemical Industries, Ltd.)) was used. It is noted that the L-glutamine solution was added immediately before use. A DMSO solution containing TIBC-CANDDY_MLN was mixed with the medium so that the concentration of DMSO was 1 vol %, and added to each well at 500 μL/well, and cultured under conditions of 37° C. and 5 vol % CO2. As a control, DMSO was used. Furthermore, in addition to an experiment group in which a DMSO solution containing TIBC-CANDDY_MLN had been added, an experiment group in which a DMSO solution containing both TIBC-CANDDY_MLN and MLN2238, or MLN2238 had been added was prepared. […]

Sequence of endogenous wild-type p53 protein (P04637 whole entry): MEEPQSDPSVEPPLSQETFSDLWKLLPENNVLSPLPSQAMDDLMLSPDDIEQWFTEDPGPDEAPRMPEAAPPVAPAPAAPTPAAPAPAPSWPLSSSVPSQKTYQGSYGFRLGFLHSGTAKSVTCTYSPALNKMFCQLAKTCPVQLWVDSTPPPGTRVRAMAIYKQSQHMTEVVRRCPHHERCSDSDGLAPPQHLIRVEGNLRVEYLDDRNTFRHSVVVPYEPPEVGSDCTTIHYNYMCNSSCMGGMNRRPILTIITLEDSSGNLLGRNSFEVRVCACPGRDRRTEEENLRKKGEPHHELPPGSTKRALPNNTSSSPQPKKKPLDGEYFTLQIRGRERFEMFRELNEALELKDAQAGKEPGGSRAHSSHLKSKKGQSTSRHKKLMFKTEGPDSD

CC(C)C[C@H](NC(=O)CNC(=O)c1cc(Cl)ccc1Cl)C(=O)NCCCCCCC(=O)Nc1ccc(C(=O)/C=C/c2ccc(I)cc2)cc1 [TIBC-CANDDY_MLN]
amount of the endogenous wild-type p53 protein (Western blot) (24 hours after addition, vs DMSO control): reduced | amount of the wild-type p53 protein when proteasome inhibitor MLN2238 is added as well (rescue) (24 hours, both TIBC-CANDDY_MLN and MLN2238 added): increased as compared with the control (DMSO)
